Where “and” joins values, the source holds several entries; their conditions need not be identical. Equal values may be shown once. Toxic doses and inconclusive results are not listed. Starred links: 1 amine or outer side, 2 acyl side, 3 side chain; linkers in the order of their positions; H or OH if unused. Positions of bridges follow the written chain, without caps; N, C: chain ends. Non-standard residues stand in square brackets, D forms with d. Residues, ends and D or L forms follow the SMILES beside them. Chains are numbered I, II in the order given. ξ: configuration not given here. *: point of attachment. Actinocin(9to1) = Cc1c2oc3c(C)ccc(C(=O)[*:1])c3nc-2c(C(=O)[*:2])c(N)c1=O; Quinaldoyl(3-OH,6-OMe) = COc1ccc2nc(C(=O)*)c(O)cc2c1; X2 = CC(=O)OC1CC=NN([*:1])C1C(=O)[*:2]; ξNMeVal(3-OH) = CNC(C(=O)O)C(C)(C)O; aThr = C[C@H](O)[C@H](N)C(=O)O; X3 = O=C(C1CCCNN1[*:1])[*:2]; NMeV = CN[C@H](C(=O)O)C(C)C; Sar = CNCC(=O)O
Tested on: BDF1 mice, M5076 sarcoma ip, median survival T/C
Assay: NCI In Vivo Anticancer Drug Screen. Data for tumor model Sarcoma M5076 (intraperitoneal) in B6D2F1 (BDF1) mice
Details: endpoint: median survival time, higher = longer survival
Experimental: The antitumor activity of compounds was measured in mice bearing transplantable tumors. Survival or tumor size were measured and the results are expressed as the measurement made in the treated group (T) divided by the measurement made in the vehicle treated control group (C). The tumor model used in this assay is Sarcoma M5076 (intraperitoneal) in B6D2F1 (BDF1) mice

SMILES: C=C1C(O)C2OC3(CCC(/C=C/C(C)C4CC5(C)SC5C5(OC(CC(C)(O)C(=O)O)CCC5O)O4)O3)CCC2OC1C(O)CC(C)C1OC2(CCCCO2)CCC1C (stereo not drawn)
- T/C (dose: 0.5 micrograms/kg/injection, schedule: Q01DX009 (ip), vehicle: saline + alcohol): 108 % of control
- T/C (dose: 1.0 micrograms/kg/injection, schedule: Q01DX009 (ip), vehicle: saline + alcohol): 111 % of control
- T/C (dose: 2.0 micrograms/kg/injection, schedule: Q01DX009 (ip), vehicle: saline + alcohol): 120 % of control
- T/C (dose: 2.5 micrograms/kg/injection, schedule: Q01DX009 (ip), vehicle: saline + alcohol): 155 % of control

SMILES: Nc1nc2c(c(=O)[nH]1)N(C=O)C(CNc1ccc(C(=O)N[C@@H](CCC(=O)O)C(=O)O)cc1)CN2 (stereo partly drawn)
- T/C (dose: 50.0 mg/kg/injection, schedule: Q01DX009 (ip), vehicle: sodium bicarbonate): 96 % of control
- T/C (dose: 100.0 mg/kg/injection, schedule: Q01DX009 (ip), vehicle: sodium bicarbonate): 86 % of control
- T/C (dose: 200.0 mg/kg/injection, schedule: Q01DX009 (ip), vehicle: sodium bicarbonate): 94 % of control

SMILES: CCOC(=O)C(N)CSC(=O)NC (stereo not drawn)
- T/C (dose: 75.0 mg/kg/injection, schedule: Q04DX004 (ip), vehicle: saline): 103 % of control
- T/C (dose: 150.0 mg/kg/injection, schedule: Q04DX004 (ip), vehicle: saline): 109 % of control
- T/C (dose: 300.0 mg/kg/injection, schedule: Q04DX004 (ip), vehicle: saline): 110 % of control
- T/C (dose: 600.0 mg/kg/injection, schedule: Q04DX004 (ip), vehicle: saline): 178 % of control

SMILES: CSC1SCC2C(=O)N(C)C(C(C)C)C(=O)OCC(NC(=O)c3cnc4ccccc4n3)C(=O)NC(C)C(=O)N(C)C1C(=O)N(C)C(C(C)C)C(=O)OCC(NC(=O)c1cnc3ccccc3n1)C(=O)NC(C)C(=O)N2C (stereo not drawn)
- T/C (dose: 25.0 micrograms/kg/injection, schedule: Q01DX009 (ip), vehicle: saline with Tween-80): 157 % of control
- T/C (dose: 50.0 micrograms/kg/injection, schedule: Q01DX009 (ip), vehicle: saline with Tween-80): 177 % of control
- T/C (dose: 100.0 micrograms/kg/injection, schedule: Q01DX009 (ip), vehicle: saline with Tween-80): 201 % of control

SMILES: O=C(O)C1(C(=O)O)CCC1.[NH2-].[NH2-].[Pt+2]
- T/C (dose: 15.6 mg/kg/injection, schedule: Q04DX005 (ip), vehicle: water): 186 % of control
- T/C (dose: 25.92 mg/kg/injection, schedule: Q04DX005 (ip), vehicle: water): 182 % of control
- T/C (dose: 43.2 mg/kg/injection, schedule: Q04DX005 (ip), vehicle: water): 194 % of control
- T/C (dose: 72.0 mg/kg/injection, schedule: Q04DX005 (ip), vehicle: water): 220 % of control
- T/C (dose: 120.0 mg/kg/injection, schedule: Q04DX005 (ip), vehicle: water): 275 % of control

SMILES: O=C1c2c(O)ccc(O)c2C(=O)c2c(NCCNCCO)ccc(NCCNCCO)c21
- T/C (dose: 0.25 mg/kg/injection, schedule: Q04DX004 (ip), vehicle: water): 236 % of control
- T/C (dose: 0.5 mg/kg/injection, schedule: Q04DX004 (ip), vehicle: water): 260 % of control
- T/C (dose: 0.5 mg/kg/injection, schedule: Q04DX005 (ip), vehicle: saline): 401 % of control
- T/C (dose: 1.0 mg/kg/injection, schedule: Q04DX004 (ip), vehicle: water): 260 % of control
- T/C (dose: 1.0 mg/kg/injection, schedule: Q04DX005 (ip), vehicle: saline): 321 % of control
- T/C (dose: 2.0 mg/kg/injection, schedule: Q04DX004 (ip), vehicle: water): 260 % of control
- T/C (dose: 2.0 mg/kg/injection, schedule: Q04DX005 (ip), vehicle: saline): 99 % of control
- T/C (dose: 4.0 mg/kg/injection, schedule: Q04DX004 (ip), vehicle: water): 100 % of control

SMILES: CC(=O)C[n+]1ccc(C)cc1Sc1ccccc1C
- T/C (dose: 12.5 mg/kg/injection, schedule: Q04DX004 (ip), vehicle: saline with Tween-80): 104 % of control
- T/C (dose: 25.0 mg/kg/injection, schedule: Q04DX004 (ip), vehicle: saline with Tween-80): 98 % of control
- T/C (dose: 50.0 mg/kg/injection, schedule: Q04DX004 (ip), vehicle: saline with Tween-80): 92 % of control
- T/C (dose: 100.0 mg/kg/injection, schedule: Q04DX004 (ip), vehicle: saline with Tween-80): 94 % of control

SMILES: CCCCCCCCCCCCCCCC(=O)O[C@@H]1[C@@H](C)[C@@]2(O)[C@@H](C=C(CO)C[C@]3(O)C(=O)C(C)=C[C@@H]23)[C@H]2[C@]1(OC(C)=O)[C@]2(C)CO
- T/C (dose: 62.5 micrograms/kg/injection, schedule: Q01DX009 (ip), vehicle: distilled water + Tween-80): 117 % of control
- T/C (dose: 125.0 micrograms/kg/injection, schedule: Q01DX009 (ip), vehicle: distilled water + Tween-80): 121 % of control
- T/C (dose: 250.0 micrograms/kg/injection, schedule: Q01DX009 (ip), vehicle: distilled water + Tween-80): 122 % of control

SMILES: O=C1N[C@H]2[C@H](O)[C@H](O)[C@@H](O)[C@H](O)[C@@H]2c2cc3c(c(O)c21)OCO3
- T/C (dose: 0.38 mg/kg/injection, schedule: Q01DX009 (ip), vehicle: saline + alcohol): 153 % of control
- T/C (dose: 0.75 mg/kg/injection, schedule: Q01DX009 (ip), vehicle: saline + alcohol): 159 % of control
- T/C (dose: 1.5 mg/kg/injection, schedule: Q01DX009 (ip), vehicle: saline + alcohol): 161 % of control and 166 % of control
- T/C (dose: 3.0 mg/kg/injection, schedule: Q01DX009 (ip), vehicle: saline + alcohol): 184 % of control and 165 % of control

SMILES: CCN(CC)CCCNc1nccc2c(C)c3[nH]c4ccncc4c3cc12
- T/C (dose: 0.63 mg/kg/injection, schedule: Q04DX004 (ip), vehicle: other): 152 % of control
- T/C (dose: 1.25 mg/kg/injection, schedule: Q04DX004 (ip), vehicle: other): 191 % of control
- T/C (dose: 2.5 mg/kg/injection, schedule: Q04DX004 (ip), vehicle: other): 179 % of control
- T/C (dose: 5.0 mg/kg/injection, schedule: Q04DX004 (ip), vehicle: other): 260 % of control
- T/C (dose: 10.0 mg/kg/injection, schedule: Q04DX004 (ip), vehicle: other): 208 % of control

SMILES: Cc1c2oc3c(C)ccc(C(=O)N[C@@H]4C(=O)N[C@H](C(C)C)C(=O)N5CCC[C@H]5C(=O)N(C)CC(=O)N(C)[C@@H](C(C)C)C(=O)O[C@H]4C)c3nc-2c(C(=O)N[C@@H]2C(=O)N[C@H](C(C)C)C(=O)N3CCC[C@H]3C(=O)N(C)CC(=O)N(C)[C@@H](C(C)C)C(=O)O[C@H]2C)c(N)c1=O (I: [aThr][dV]P[Sar][NMeV] / II: [aThr][dV]P[Sar][NMeV]; ester I:1-I:C, II:1-II:C; linker I:N-II:N via Actinocin(9to1))
- T/C (dose: 0.1 mg/kg/injection, schedule: Q04DX004 (ip), vehicle: saline + alcohol): 165 % of control
- T/C (dose: 0.2 mg/kg/injection, schedule: Q04DX004 (ip), vehicle: saline + alcohol): 178 % of control

SMILES: COc1ccc2nc(C(=O)NC3COC(=O)C(C(C)(C)O)N(C)C(=O)CN(C)C(=O)CNC(=O)C4CCCNN4C(=O)C(NC(=O)c4nc5ccc(OC)cc5cc4O)COC(=O)C(C(C)(C)O)N(C)C(=O)CN(C)C(=O)CNC(=O)C4C(OC(C)=O)CC=NN4C3=O)c(O)cc2c1 (stereo not drawn) (I: {Quinaldoyl(3-OH,6-OMe)}-S[X2]G[Sar][ξNMeVal(3-OH)] / II: {Quinaldoyl(3-OH,6-OMe)}-S[X3]G[Sar][ξNMeVal(3-OH)]; ester I:1-II:C, I:C-II:1; configuration not given here)
- T/C (dose: 10.0 micrograms/kg/injection, schedule: Q01DX009 (ip), vehicle: DMSO): 155 % of control
- T/C (dose: 12.5 micrograms/kg/injection, schedule: Q01DX009 (ip), vehicle: DMSO): 157 % of control
- T/C (dose: 20.0 micrograms/kg/injection, schedule: Q01DX009 (ip), vehicle: DMSO): 190 % of control
- T/C (dose: 25.0 micrograms/kg/injection, schedule: Q01DX009 (ip), vehicle: DMSO): 170 % of control
- T/C (dose: 50.0 micrograms/kg/injection, schedule: Q01DX009 (ip), vehicle: DMSO): 179 % of control

SMILES: COc1cc2cc(c1Cl)N(C)C(=O)C[C@H](OC(=O)[C@H](C)N(C)C(C)=O)[C@]1(C)O[C@H]1[C@H](C)[C@@H]1C[C@@](O)(NC(=O)O1)[C@H](OC)C=C/C=C(\C)C2
- T/C (dose: 37.0 micrograms/kg/injection, schedule: Q04DX004 (ip), vehicle: saline): 117 % of control
- T/C (dose: 37.0 micrograms/kg/injection, schedule: Q04DX005 (ip), vehicle: saline): 113 % of control
- T/C (dose: 75.0 micrograms/kg/injection, schedule: Q04DX004 (ip), vehicle: saline): 112 % of control
- T/C (dose: 75.0 micrograms/kg/injection, schedule: Q04DX005 (ip), vehicle: saline): 123 % of control
- T/C (dose: 150.0 micrograms/kg/injection, schedule: Q04DX004 (ip), vehicle: saline): 119 % of control

SMILES: O=NN(CCCl)C(=O)NC1CCCCC1
- T/C (dose: 6.0 mg/kg/injection, schedule: Q01DX005 (sc), vehicle: other): 256 % of control
- T/C (dose: 12.0 mg/kg/injection, schedule: Q01DX005 (sc), vehicle: other): 256 % of control

SMILES: Oc1cc(O)c(-c2c(O)cc(O)cc2O)c(O)c1 (tested in a mixture with another compound)
- T/C (dose: 1.56 mg/kg/injection, schedule: Q01DX009 (ip), vehicle: saline): 118 % of control
- T/C (dose: 3.12 mg/kg/injection, schedule: Q01DX009 (ip), vehicle: saline): 122 % of control
- T/C (dose: 3.75 mg/kg/injection, schedule: Q01DX009 (ip), vehicle: saline): 119 % of control
- T/C (dose: 6.25 mg/kg/injection, schedule: Q01DX009 (ip), vehicle: saline): 118 % of control
- T/C (dose: 12.5 mg/kg/injection, schedule: Q01DX009 (ip), vehicle: saline): 123 % of control
- T/C (dose: 15.0 mg/kg/injection, schedule: Q01DX009 (ip), vehicle: saline): 123 % of control

From PubChem BioAssay AID286 (DTP/NCI, 2004)
